{
  "source": "paper PMC6934184",
  "about": "“Selective DNA-PKcs inhibition extends the therapeutic index of localized radiotherapy and chemotherapy” (The Journal of Clinical Investigation, 2019)",
  "molecular_target": "T1, MAP3K11 (MLK3) (Homo sapiens, UniProt Q16584)",
  "T1 construct": "purchased Thermo Fisher Scientific (Life Technologies) SelectScreen",
  "T1 sequence (Q16584 whole entry)": "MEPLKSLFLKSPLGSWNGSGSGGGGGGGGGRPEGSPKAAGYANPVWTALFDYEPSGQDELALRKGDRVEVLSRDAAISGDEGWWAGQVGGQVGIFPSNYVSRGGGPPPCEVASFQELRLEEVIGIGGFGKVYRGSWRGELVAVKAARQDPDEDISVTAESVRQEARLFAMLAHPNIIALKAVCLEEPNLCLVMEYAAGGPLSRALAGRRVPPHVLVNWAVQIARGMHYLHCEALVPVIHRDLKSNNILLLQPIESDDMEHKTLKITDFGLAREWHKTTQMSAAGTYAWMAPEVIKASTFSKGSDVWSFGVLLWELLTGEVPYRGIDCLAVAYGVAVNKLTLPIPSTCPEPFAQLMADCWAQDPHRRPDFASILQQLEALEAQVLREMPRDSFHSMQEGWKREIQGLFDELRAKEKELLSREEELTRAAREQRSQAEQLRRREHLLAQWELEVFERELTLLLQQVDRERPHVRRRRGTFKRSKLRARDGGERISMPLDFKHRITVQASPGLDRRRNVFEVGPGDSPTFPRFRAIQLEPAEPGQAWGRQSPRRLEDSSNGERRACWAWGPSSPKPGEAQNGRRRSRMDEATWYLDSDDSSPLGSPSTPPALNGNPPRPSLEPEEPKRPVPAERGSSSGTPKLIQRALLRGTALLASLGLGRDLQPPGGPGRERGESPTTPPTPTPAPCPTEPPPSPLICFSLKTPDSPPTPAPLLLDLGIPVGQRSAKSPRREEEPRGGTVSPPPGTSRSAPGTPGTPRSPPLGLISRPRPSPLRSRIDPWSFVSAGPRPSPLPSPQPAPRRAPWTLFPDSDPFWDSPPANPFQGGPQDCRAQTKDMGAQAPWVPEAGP",
  "test": "SelectScreen LanthaScreen",
  "assay_type": "binding",
  "settings": "1 µM",
  "in_short": "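Percent values come from Thermo SelectScreen profiling of NU5455, combining activity and binding assays. CSF1R was run in Z'LYTE format at Km app ATP, and CAMK1 in Adapta format with ATP listed at 10.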",
  "data": [
    {"smiles": "CN(C(=O)CN1CCOCC1)c1ccc2sc3c(-c4cccc5c(=O)cc(N6CC7CCC(C6)O7)oc45)cccc3c2c1", "note": "[NU5455]", "values": [
      {"measurement": "% displacement", "value": 4.0, "unit": "%"}
    ]}
  ]
}
